{"source": "patent US20130178413A1", "about": "“HCV NS3 PROTEASE INHIBITORS” (priority 2010, published 2013)", "key": {"[1]": {"molecular_target": "NS3/4A protease gt 1b (Hepatitis C virus genotype 1b, UniProt P26663)", "test": "HCV NS3 protease time-resolved fluorescence (TRF) assay, NS3/4A inhibitory activity (Ki), gt 1b", "type": "biochemical", "details": "genotype 1b NS3/4A; read-out: Enzyme Activity gt 1b Ki", "method_in_brief": "(§1)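 NS3/4A protease (gt 1b, 1b A156V, 3a) pre-incubated 30 min with inhibitor in 50 mM HEPES pH 7.5, 150 mM NaCl, 15% glycerol, 0.15% Triton X-100, 10 mM DTT, 0.1% PEG 8000; 100 nM TRF peptide substrate, 1 h at room temperature, quenched with MES pH 5.5. Time-resolved fluorescence (ex 340/em 615 nm); four-parameter IC50 converted to Ki via IC50=Ki(1+[S]/KM).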"}, "[2]": {"molecular_target": "NS3/4A protease gt 1b A156V (Hepatitis C virus genotype 1b, UniProt P26663, A1182V)", "test": "HCV NS3 protease time-resolved fluorescence (TRF) assay, NS3/4A inhibitory activity (Ki), gt 1b A156V mutant", "type": "biochemical, hepatitis C virus (HCV)", "method_in_brief": "as §1"}, "[3]": {"molecular_target": "NS3/4A protease gt 3a (Hepatitis C virus genotype 3a, UniProt Q81258)", "test": "HCV NS3 protease time-resolved fluorescence (TRF) assay, NS3/4A inhibitory activity (Ki), gt 3a", "type": "biochemical", "details": "genotype 3a NS3/4A; read-out: Enzyme Activity gt 3a Ki", "method_in_brief": "as §1"}, "[4]": {"tested_on": "gt 1b Replicon", "test": "HCV replicon assay, compound inhibitory potency (Replicon EC50)", "type": "cell-based", "details": "Hepatitis C virus, GT1B", "method_in_brief": "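Stable replicon-harboring cells (neomycin phosphotransferase, some luciferase:Neor fusion) plated with compound dilution series without G418, incubated 24-48 h. Read-out: RNA by 32P-probe protection or TaqMan normalized to cyclophilin A RNA, or luciferase activity; EC50 as percent of DMSO control, four-parameter fit.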"}, "[5]": {"details": "10% Fetal Bovine Serum, read-out: gt 1b Replicon EC50 10% FBS"}, "[6]": {"details": "50% Normal Human Serum, read-out: gt 1b Replicon EC50 50% NHS"}}, "note": "Where two headings read alike, the source gives them in different places.", "data": [{"smiles": "C=C[C@@H]1C[C@]1(NC(=O)[C@@H]1C[C@@H]2CN1C(=O)[C@H](C1CCCC1)NC(=O)O[C@]1(C)C[C@H]1CC/C=C/Cn1c(nc3cc(C)ccc3c1=O)O2)C(=O)NS(=O)(=O)C1(C)CC1", "note": "[Example I-24, (1aR,5S,8S,10R,20E,23aR)-5-cyclopentyl-N-[(1R,2S)-2-ethenyl-1-{[(1-methylcyclopropyl)sulfonyl]carbamoyl}cyclopropyl]-1a,14-dimethyl-3,6,17-trioxo-1,1a,3,4,5,6,9,10,19,22,23,23a-dodecahydro-8H,17H-7,10-methanocyclo propa[18,19][1,10,3,6,12] dioxatriazacyclo nonadecino[11,12-b]quinazoline-8-carboxamide]", "values": [{"measurement": "Ki", "setting": "[1]", "result": 0.02, "unit": "nM"}, {"measurement": "Ki", "setting": "[2]", "result": 0.9, "unit": "nM"}, {"measurement": "Ki", "setting": "[3]", "result": 0.7, "unit": "nM"}, {"measurement": "EC50", "setting": "[4]; [5]", "result": 2, "unit": "nM"}, {"measurement": "EC50", "setting": "[4]; [6]", "result": 8.5, "unit": "nM"}]}, {"smiles": "C=C[C@@H]1C[C@]1(NC(=O)[C@@H]1C[C@@H]2CN1C(=O)[C@H](C1CCCC1)NC(=O)O[C@]1(C)C[C@H]1CC/C=C/Cn1c(nc3cc(Cl)ccc3c1=O)O2)C(=O)NS(=O)(=O)C1CC1", "note": "[Example I-26, (1aR,5S,8S,10R,20E,23aR)-14-chloro-5-cyclopentyl-N-{(1R,2S)-1-[(cyclopropylsulfonyl)carbamoyl]-2-ethenylcyclopropyl}-1a-methyl-3,6,17-trioxo-1,1a,3,4,5,6,9, 10,19,22,23,23a-dodecahydro-8H,17H-7,10-methano cyclopropa[18,19][1,10,3,6,12]dioxatriaza cyclononadecino[11,12-b]quinazoline-8-carboxamide]", "values": [{"measurement": "Ki", "setting": "[1]", "result": 0.02, "unit": "nM"}, {"measurement": "Ki", "setting": "[2]", "result": 1.6, "unit": "nM"}, {"measurement": "Ki", "setting": "[3]", "result": 0.8, "unit": "nM"}, {"measurement": "EC50", "setting": "[4]; [5]", "result": 3, "unit": "nM"}, {"measurement": "EC50", "setting": "[4]; [6]", "result": 13, "unit": "nM"}]}, {"smiles": "C=C[C@@H]1C[C@]1(NC(=O)[C@@H]1C[C@@H]2CN1C(=O)[C@H](C1CCCC1)NC(=O)O[C@]1(C)C[C@H]1CCCCCn1c(nc3cc(C)ccc3c1=O)O2)C(=O)NS(=O)(=O)C1CC1", "note": "[Example I-27, (1aR,5S,8S,10R,23aR)-5-cyclopentyl-N-{(1R,2S)-1-[(cyclopropylsulfonyl)carbamoyl]-2-ethenylcyclopropyl}-1a,14-dimethyl-3,6,17-trioxo-1,1a,3,4,5,6,9, 10,19,22,21,22,23,23a-tetradecahydro-8H,17H-7,10-methanocyclopropa[18, 19][1,10,3,6,12]dioxatri azacyclononadecino [11,12-b]quinazoline-8-carboxamide]", "values": [{"measurement": "Ki", "setting": "[1]", "result": 0.04, "unit": "nM"}, {"measurement": "Ki", "setting": "[2]", "result": 4.1, "unit": "nM"}, {"measurement": "Ki", "setting": "[3]", "result": 2.8, "unit": "nM"}, {"measurement": "EC50", "setting": "[4]; [5]", "result": 2, "unit": "nM"}, {"measurement": "EC50", "setting": "[4]; [6]", "result": 6, "unit": "nM"}]}, {"smiles": "C=C[C@@H]1C[C@]1(NC(=O)[C@@H]1C[C@@H]2CN1C(=O)[C@H](C1CCCC1)NC(=O)O[C@]1(C)C[C@H]1CCCCCc1nc3ccccc3nc1O2)C(=O)NS(=O)(=O)C1CC1", "note": "[Example I-28, (1aR,5S,8S,10R,22aR)-5-cyclopentyl-N-{(1R,2S)-1-[(cyclopropylsulfonyl)carbamoyl]-2-ethenylcyclopropyl}-1a-methyl-3,6-dioxo-1,1a,3,4,5,6,9,10,18,19, 20,21,22,22a-tetradecahydro-8H-7,10-methanocyclo propa[18,19][1,10,3,6] dioxadiazacyclonona decino[11,12-b]quinoxaline-8-carboxamide]", "values": [{"measurement": "Ki", "setting": "[1]", "result": 0.04, "unit": "nM"}, {"measurement": "Ki", "setting": "[2]", "result": 2.7, "unit": "nM"}, {"measurement": "Ki", "setting": "[3]", "result": 3.2, "unit": "nM"}, {"measurement": "EC50", "setting": "[4]; [5]", "result": 2, "unit": "nM"}, {"measurement": "EC50", "setting": "[4]; [6]", "result": 10, "unit": "nM"}]}, {"smiles": "C=C[C@@H]1C[C@]1(NC(=O)[C@@H]1C[C@@H]2CN1C(=O)[C@H](C1CCCC1)NC(=O)O[C@]1(C)C[C@H]1CCCCCc1nc3ccccc3nc1O2)C(=O)NS(=O)(=O)C1(C)CC1", "note": "[Example I-29, (1aR,5S,8S,10R,22aR)-5-cyclopentyl-N-[(1R,2S)-2-ethenyl-1-{[(1-methylcyclopropyl)sulfonyl]carbamoyl}cyclopropyl]-1a-methyl-3,6-dioxo-1,1a,3,4,5,6,9,10,18,19, 20,21,22,22a-tetradecahydro-8H-7,10-methanocyclo propa[18,19][1,10,3,6] dioxadiazacyclonona decino[11,12-b]quinoxaline-8-carboxamide]", "values": [{"measurement": "Ki", "setting": "[1]", "result": 0.04, "unit": "nM"}, {"measurement": "Ki", "setting": "[2]", "result": 1.7, "unit": "nM"}, {"measurement": "Ki", "setting": "[3]", "result": 3.1, "unit": "nM"}, {"measurement": "EC50", "setting": "[4]; [5]", "result": 3, "unit": "nM"}, {"measurement": "EC50", "setting": "[4]; [6]", "result": 9, "unit": "nM"}]}, {"smiles": "C=C[C@@H]1C[C@]1(NC(=O)[C@@H]1C[C@@H]2CN1C(=O)[C@H](C1CCCC1)NC(=O)O[C@]1(C)C[C@H]1CCCCCc1nc3cccc(OC)c3nc1O2)C(=O)NS(=O)(=O)C1CC1", "note": "[Example I-30, (1aR,5S,8S,10R,22aR)-5-cyclopentyl-N-{(1R,2S)-1-[(cyclopropylsulfonyl)carbamoyl]-2-ethenylcyclopropyl}-13-methoxy-1a-methyl-3,6-dioxo-1,1a,3,4,5,6,9,10,18,19,20,21,22,22a-tetradecahydro-8H-7,10-methanocyclo propa[18,19][1,10,3,6] dioxadiazacyclonona decino[11,12-b]quinoxaline-8-carboxamide]", "values": [{"measurement": "Ki", "setting": "[1]", "result": 0.02, "unit": "nM"}, {"measurement": "Ki", "setting": "[2]", "result": 1.9, "unit": "nM"}, {"measurement": "Ki", "setting": "[3]", "result": 2.2, "unit": "nM"}, {"measurement": "EC50", "setting": "[4]; [5]", "result": 1, "unit": "nM"}, {"measurement": "EC50", "setting": "[4]; [6]", "result": 5, "unit": "nM"}]}, {"smiles": "CC[C@@H]1C[C@]1(NC(=O)[C@@H]1C[C@@H]2CN1C(=O)[C@H](C1CCCC1)NC(=O)O[C@]1(C)C[C@H]1CC/C=C/Cn1c(nc3cc(C)ccc3c1=O)O2)C(=O)NS(=O)(=O)C1CC1", "note": "[Example I-31, (1aR,5S,8S,10R,20E,23aR)-5-cyclopentyl-N-{(1R,2R)-1-[(cyclopropylsulfonyl)carbamoyl]-2-ethylcyclopropyl}-1a,14-dimethyl-3,6,17-trioxo-1,1a,3,4,5,6,9,10,19,22,23,23a-dodecahydro-8H,17H-7,10-methanocyclo propa[18,19][1,10,3,6, 12]dioxatriazacyclo nonadecino[11,12-b]quinazoline-8-carboxamide]", "values": [{"measurement": "Ki", "setting": "[1]", "result": 0.1, "unit": "nM"}, {"measurement": "Ki", "setting": "[2]", "result": 13.3, "unit": "nM"}, {"measurement": "Ki", "setting": "[3]", "result": 5.3, "unit": "nM"}, {"measurement": "EC50", "setting": "[4]; [5]", "result": 4, "unit": "nM"}, {"measurement": "EC50", "setting": "[4]; [6]", "result": 10, "unit": "nM"}]}, {"smiles": "C=C[C@@H]1C[C@]1(NC(=O)[C@@H]1C[C@@H]2CN1C(=O)[C@H](C(C)(C)C)NC(=O)O[C@]1(C)C[C@H]1CCC/C=C/c1cccc3c1CN(C3)C(=O)O2)C(=O)NS(=O)(=O)C1(C)CC1", "note": "[Example I-32, (1aR,5S,8S,10R,19E,23aR)-5-tert-butyl-N-[(1R,2S)-2-ethenyl-1-{[(1-methylcyclopropyl)sulfonyl]carbamoyl}cyclopropyl]-1a-methyl-3,6,12-trioxo-1a,3,4,5,6,9, 10,14,21,22,23,23a-dodecahydro-1H,8H-7,10:13,15-dimethanocyclopropa [n][4,13,2,8,11]benzo dioxatriazacyclo docosine-8(12H)-carboxamide]", "values": [{"measurement": "Ki", "setting": "[1]", "result": 0.03, "unit": "nM"}, {"measurement": "Ki", "setting": "[2]", "result": 1, "unit": "nM"}, {"measurement": "Ki", "setting": "[3]", "result": 1.8, "unit": "nM"}, {"measurement": "EC50", "setting": "[4]; [5]", "result": 1, "unit": "nM"}, {"measurement": "EC50", "setting": "[4]; [6]", "result": 11, "unit": "nM"}]}]}
